The subject of the first assay is H3K36me3 in A549 cells. Put plainly: In-Cell Western (ICW) assay of SETD2 inhibitors (A549 assay). Format: cell-based, human. The conditions noted are these: A549 cells; read-out: SETD2 A549. In outline: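 A549 cells seeded at 4,000/well onto compound and incubated 3 days at 37° C. Methanol-fixed cells stained overnight at 4° C with anti-H3K36me3 (1:1000), then IRDye 800CW secondary with DRAQ5 DNA counterstain. Plates read by Licor imaging at 700 and 800 channels.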
As to `Cc1ccc(F)c2cc(C(=O)Nc3cccc4ncccc34)[nH]c12` [compound 238], the IC50 stood at 600 nM.

As for `Cc1ccc(F)c2cc(C(=O)Nc3cccc(N4CCN5C(=O)CCC5C4)c3)[nH]c12` (centres unmarked) [compound 27], the IC50 was 70 nM.

Regarding `Cc1ccc(F)c2cc(C(=O)NC3CCCC(N4CCN5C(=O)OCC5C4)C3)[nH]c12` (centres unmarked) [compound 1134], the IC50 is more than 2000 nM.

Consider `Cc1cccc2cc(C(=O)NC3CCC(NS(=O)(=O)CCCN)CC3)[nH]c12` (centres unmarked) [compound 581], for which the IC50 is more than 25000 nM.

For `Cc1cccnc1C(Cc1ccc(CN2CCOCC2)cc1)NC(=O)c1cc2c(F)ccc(C)c2[nH]1` (centres unmarked) [compound 358], the IC50 was more than 2000 nM.

In the case of `Cc1cc(C(=O)NC2CCN(C)CC2)cnc1C(NC(=O)c1cc2c(F)ccc(C)c2[nH]1)C1CC1` (centres unmarked) [compound 412], the IC50 worked out at 3100 nM.

For `Cc1ccc(F)c2cc(C(=O)Nc3cc(F)cc(N4CCC(N5CCN6C(=O)N(C)CC6C5)C4)c3)[nH]c12` (centres unmarked) [compound 2], the IC50 is 30 nM.

For `CC(=O)N1CCC(c2cc(F)cc(NC(=O)c3cc4c(F)ccc(C)c4[nH]3)c2)C1` (centres unmarked) [compound 56], the IC50 worked out at 100 nM.

Still in this assay, the particulars now being: Homo sapiens, A549, read-out: SETD2 A549.
In the case of `Cc1ccc(F)c2cc(C(=O)Nc3cccc(N4CCN(CCO)CC4)c3)[nH]c12` [compound 204], the IC50 was 400 nM.

Staying with this assay, now noted: Homo sapiens; A549 cells; read-out: SETD2 A549.
With `COCCN(C)C1CCN(c2cccc(NC(=O)c3cc4c(F)ccc(C)c4[nH]3)c2)C1` (centres unmarked) [compound 156], the IC50 was 300 nM.

For the molecule `CC(=O)N1CCN([C@H]2CCC[C@@H](NC(=O)c3cc4c(F)ccc(C)c4[nH]3)C2)C[C@H]1C` [compound 930], the IC50 came out at 10 nM.

As to `Cc1ccc(F)c2cc(C(=O)Nc3cccc(N4CCCC(N(C)C)C4)c3)[nH]c12` (centres unmarked) [compound 335], the IC50 amounted to 1600 nM.

Turning to `CC(=O)N1CCC(N2CCCC(NC(=O)c3cc4c(F)ccc(C)c4[nH]3)C2)CC1` (centres unmarked) [compound 366], the IC50 was more than 2000 nM.

Regarding `Cc1cccc2cc(C(=O)Nc3cccc(N4CCC(NCCN)CC4)n3)[nH]c12` [compound 531], the IC50 is more than 25000 nM.

Turning to `Cc1ccc(F)c2cc(C(=O)Nc3cccc(N4CCOC(CN(C)C)C4)c3)[nH]c12` (centres unmarked) [compound 167], the IC50 was found to be 300 nM.

As for `Cc1ccc(F)c2cc(C(=O)Nc3cccc(-c4cnn5ccccc45)c3)[nH]c12` [compound 290], the IC50 turned out to be 1100 nM.

Regarding `Cc1ccc(F)c2cc(C(=O)Nc3cccc(-c4nnc(CN(C)C)s4)c3)[nH]c12` [compound 132], the IC50 was 300 nM.

Consider `Cc1ccc(F)c2cc(C(=O)Nc3cc(CF)cc(N4CCC(N(C)C)CC4)c3)[nH]c12` [compound 274], for which the IC50 is 800 nM.

Regarding `Cc1ccc(F)c2cc(C(=O)Nc3cc(N4CCN(C)CC4)n4cncc4c3)[nH]c12` [compound 232], the IC50 came to 500 nM.

For `Cc1ccc(F)c2cc(C(=O)Nc3nnc(C4CCN(C)CC4)o3)[nH]c12` [compound 557], the IC50 was more than 25000 nM.

With `Cc1ccc(F)c2cc(C(=O)Nc3cccc(N4CCC(CCCN)CC4)c3)[nH]c12` [compound 150], the IC50 came out at 300 nM.

For the molecule `Cc1ccc(F)c2cc(C(=O)N[C@H]3CCC[C@H](N4CCCOCC4)C3)[nH]c12` [compound 362], the IC50 was more than 2000 nM.

A further assay concerns the target T1, SETD2(1434-1711) (Homo sapiens, UniProt Q9BYW2).
T1 construct: SETD2 (1434-1711) Assay; catalogue N/A
T1 sequence (Q9BYW2 1434-1711): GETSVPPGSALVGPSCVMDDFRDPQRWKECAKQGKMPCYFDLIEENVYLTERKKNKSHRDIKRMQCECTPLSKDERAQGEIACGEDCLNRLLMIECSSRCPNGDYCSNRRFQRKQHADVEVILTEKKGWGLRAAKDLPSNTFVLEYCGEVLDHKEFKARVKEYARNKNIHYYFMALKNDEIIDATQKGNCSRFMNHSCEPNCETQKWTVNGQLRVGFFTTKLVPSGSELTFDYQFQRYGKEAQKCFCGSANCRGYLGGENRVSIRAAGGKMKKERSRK
As to the kind of experiment: SETD2 (1434-1711) assay. Format: biochemical.
Details: not given
In the case of `Cc1ccc(F)c2cc(C(=O)Nc3cccc(N4CCN(CCO)CC4)c3)[nH]c12` [compound 204], the IC50 was found to be 80 nM.

The assay is the same for the next values; noted with them: read-out: SETD2 (1434-1711).
As for `COCCN(C)C1CCN(c2cccc(NC(=O)c3cc4c(F)ccc(C)c4[nH]3)c2)C1` (centres unmarked) [compound 156], the IC50 is 30 nM.

As to `Cc1ccc(F)c2cc(C(=O)Nc3cccc4ncccc34)[nH]c12` [compound 238], the IC50 is 200 nM.

For `CC(=O)N1CCN([C@H]2CCC[C@@H](NC(=O)c3cc4c(F)ccc(C)c4[nH]3)C2)C[C@H]1C` [compound 930], the IC50 was found to be 4 nM.

As for `Cc1ccc(F)c2cc(C(=O)Nc3cccc(N4CCN5C(=O)CCC5C4)c3)[nH]c12` (centres unmarked) [compound 27], the IC50 is 20 nM.

With `Cc1ccc(F)c2cc(C(=O)NC3CCCC(N4CCN5C(=O)OCC5C4)C3)[nH]c12` (centres unmarked) [compound 1134], the IC50 amounted to 1000 nM.

As to `Cc1ccc(F)c2cc(C(=O)Nc3cccc(N4CCCC(N(C)C)C4)c3)[nH]c12` (centres unmarked) [compound 335], the IC50 was 80 nM.

In the case of `CC(=O)N1CCC(N2CCCC(NC(=O)c3cc4c(F)ccc(C)c4[nH]3)C2)CC1` (centres unmarked) [compound 366], the IC50 amounted to 3000 nM.

As for `Cc1cccc2cc(C(=O)NC3CCC(NS(=O)(=O)CCCN)CC3)[nH]c12` (centres unmarked) [compound 581], the IC50 is 28200 nM.

As for `Cc1cccc2cc(C(=O)Nc3cccc(N4CCC(NCCN)CC4)n3)[nH]c12` [compound 531], the IC50 stood at 200 nM.

`Cc1ccc(F)c2cc(C(=O)Nc3cccc(N4CCOC(CN(C)C)C4)c3)[nH]c12` (centres unmarked) [compound 167]: the IC50 was found to be 50 nM.

For `Cc1ccc(F)c2cc(C(=O)Nc3cccc(-c4cnn5ccccc45)c3)[nH]c12` [compound 290], the IC50 was 400 nM.

As to `Cc1cccnc1C(Cc1ccc(CN2CCOCC2)cc1)NC(=O)c1cc2c(F)ccc(C)c2[nH]1` (centres unmarked) [compound 358], the IC50 amounted to 900 nM.

In the case of `Cc1cc(C(=O)NC2CCN(C)CC2)cnc1C(NC(=O)c1cc2c(F)ccc(C)c2[nH]1)C1CC1` (centres unmarked) [compound 412], the IC50 was determined as 100 nM.

In the case of `Cc1ccc(F)c2cc(C(=O)Nc3cc(F)cc(N4CCC(N5CCN6C(=O)N(C)CC6C5)C4)c3)[nH]c12` (centres unmarked) [compound 2], the IC50 turned out to be 5 nM.

On to `Cc1ccc(F)c2cc(C(=O)Nc3cccc(-c4nnc(CN(C)C)s4)c3)[nH]c12` [compound 132], for which the IC50 is 50 nM.

Consider `Cc1ccc(F)c2cc(C(=O)Nc3cc(CF)cc(N4CCC(N(C)C)CC4)c3)[nH]c12` [compound 274], for which the IC50 is 40 nM.

For the molecule `Cc1ccc(F)c2cc(C(=O)Nc3cc(N4CCN(C)CC4)n4cncc4c3)[nH]c12` [compound 232], the IC50 came to 60 nM.

In the case of `Cc1ccc(F)c2cc(C(=O)Nc3nnc(C4CCN(C)CC4)o3)[nH]c12` [compound 557], the IC50 was more than 10000 nM.

Consider `Cc1ccc(F)c2cc(C(=O)Nc3cccc(N4CCC(CCCN)CC4)c3)[nH]c12` [compound 150], for which the IC50 was 20 nM.

As to `Cc1ccc(F)c2cc(C(=O)N[C@H]3CCC[C@H](N4CCCOCC4)C3)[nH]c12` [compound 362], the IC50 is 1400 nM.

In the case of `CC(=O)N1CCC(c2cc(F)cc(NC(=O)c3cc4c(F)ccc(C)c4[nH]3)c2)C1` (centres unmarked) [compound 56], the IC50 came to 30 nM.

(Values after patent publication US12116358B2, “Substituted indoles and methods of use thereof” (EPIZYME, INC., priority 2018, dated 2024).)
